Data taken from patent US20250221966A1, “RXFP1 AGONISTS” (BRISTOL-MYERS SQUIBB COMPANY, priority 2021, published 2025).

Target: T1, human RXFP1 (Homo sapiens, UniProt Q9HBX9)
T1 construct: expressed in transfected cells
T1 sequence (Q9HBX9 1-757): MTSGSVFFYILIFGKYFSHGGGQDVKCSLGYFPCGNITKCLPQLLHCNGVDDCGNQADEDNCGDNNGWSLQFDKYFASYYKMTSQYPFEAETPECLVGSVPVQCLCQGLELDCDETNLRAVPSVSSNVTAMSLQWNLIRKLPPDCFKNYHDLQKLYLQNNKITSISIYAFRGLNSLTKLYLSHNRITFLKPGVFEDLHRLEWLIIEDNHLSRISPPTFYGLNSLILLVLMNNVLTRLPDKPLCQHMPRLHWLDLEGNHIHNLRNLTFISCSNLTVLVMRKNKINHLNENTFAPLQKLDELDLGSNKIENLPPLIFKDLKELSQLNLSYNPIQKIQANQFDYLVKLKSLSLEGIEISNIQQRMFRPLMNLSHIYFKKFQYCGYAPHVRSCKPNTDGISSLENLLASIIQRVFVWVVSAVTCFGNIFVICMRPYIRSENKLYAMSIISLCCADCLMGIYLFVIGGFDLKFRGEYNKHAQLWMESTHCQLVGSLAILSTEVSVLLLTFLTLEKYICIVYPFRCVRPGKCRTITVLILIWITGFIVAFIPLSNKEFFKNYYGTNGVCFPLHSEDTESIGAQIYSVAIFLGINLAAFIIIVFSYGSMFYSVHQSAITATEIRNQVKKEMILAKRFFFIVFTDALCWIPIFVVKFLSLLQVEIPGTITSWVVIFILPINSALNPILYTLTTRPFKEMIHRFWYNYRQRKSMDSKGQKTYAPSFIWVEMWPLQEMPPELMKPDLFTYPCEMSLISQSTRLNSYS
Assay: RXFP1 cAMP assay (hRXFP1 HEK293 cAMP assay, HTRF)
Type: cell-based
Conditions: HEK293 cells stably expressing human RXFP1, 30 min at room temperature, read-out: cAMP hRXFP1 HEK293 Assay EC50
Outline: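 In a stable human RXFP1 HEK293 line, compounds acted for 30 min at RT in buffer with 0.5 mM IBMX. HTRF then quantified cellular cAMP.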

Row | EC50 [nM] | SMILES
1 | 7 | COc1ccc(-c2cccc(CC(F)(F)F)c2)cc1C(=O)N[C@@H]1C2CCC(/C2=C/C2CC2)[C@@H]1C(=O)Nc1ccc(F)c(C(F)(F)F)c1 (some centres unmarked) [compound 287]
2 | 3.7 | COc1ccc(C2=NOC3CC(OC)CC23)cc1C(=O)N[C@@H]1C2CCC(/C2=C/C2CC2)[C@@H]1C(=O)Nc1ccc(F)c(C(F)(F)F)c1 (some centres unmarked) [compound 867]
3 | 190 | COc1ccc(-c2cc(C(=O)NS(=O)(=O)c3ccccc3)ccc2F)cc1C(=O)N[C@@H]1C2CCC(C2=C(C)C)[C@@H]1C(=O)Nc1ccc(F)c(C(F)(F)F)c1 (some centres unmarked) [Example 150]
4 | 1 | COc1ccc(-c2cc(C(NC(=O)Cc3ccccc3)C(=O)O)ccc2F)cc1C(=O)N[C@@H]1C2CCC(/C2=C/C(F)(F)F)[C@@H]1C(=O)Nc1ccc(F)c(C(F)(F)F)c1 (some centres unmarked) [compound 240]
5 | 610 | COc1ccc(-c2cc(C(=O)NS(=O)(=O)C3CC3)ccc2F)cc1C(=O)N[C@@H]1C2CCC(C2=C(C)C)[C@@H]1C(=O)Nc1ccc(F)c(C(F)(F)F)c1 (some centres unmarked) [compound 157]
6 | 3830 | COc1ccc(-c2cc(C(=O)O)ccc2F)cc1C(=O)N[C@@H]1C2CCC(/C2=C/C2CC2)[C@@H]1C(=O)Oc1cccc(-c2nnnn2C)c1 (some centres unmarked) [compound 272]
7 | 3.3 | COc1ccc(C2=NOC3CC(C)(CO)CC23)cc1C(=O)N[C@H]1[C@@H](C(=O)Nc2ccc(F)c(C(F)(F)F)c2)[C@H]2CC[C@@H]1/C2=C\C1CCCC1 (some centres unmarked) [compound 748]
8 | 2800 | COC(=O)N1CC=C(c2ccc(OC)c(C(=O)N[C@@H]3C4CCC(C4=C(C)C)[C@@H]3C(=O)Nc3ccc(F)c(C(F)(F)F)c3)c2)CC1 (some centres unmarked) [compound 143]
9 | 91 | O=C(O)c1ccc(F)c(-c2ccc(OCCO)c(C(=O)N[C@@H]3C4CCC(/C4=C/C(F)(F)F)[C@@H]3C(=O)Nc3ccc(F)c(C(F)(F)F)c3)c2)c1 (some centres unmarked) [compound 321]
10 | 22.4 | COc1ccc(N2CC(CO)CC2=O)cc1C(=O)N[C@H]1[C@@H](C(=O)Nc2ccc(F)c(C(F)(F)F)c2)[C@H]2CC[C@@H]1/C2=C\C1CC1 (some centres unmarked) [compound 526]
11 | 8.2 | COc1ccc(C2=NOC(C3(O)CCCC3)C2)cc1C(=O)N[C@H]1[C@@H](C(=O)Nc2ccc(F)c(C(F)(F)F)c2)[C@H]2CC[C@@H]1/C2=C\C1CC1 (single isomer, unassigned) [compound 488]
12 | 1.1 | COc1ccc(-c2cc([C@H](OC(=O)NC3CC3)C(F)(F)F)ccc2F)cc1C(=O)N[C@H]1[C@@H](C(=O)Nc2ccc(F)c(C(F)(F)F)c2)[C@H]2CC[C@@H]1/C2=C\C(C)C [compound 930]
13 | 2390 | COc1ccc(-c2cc(C(=O)O)ccc2F)cc1C(=O)N[C@@H]1C2CCC(/C2=C/C2CC2)[C@@H]1C(=O)NC1Cc2ccccc2C1 (some centres unmarked) [compound 308]
14 | 1 | COc1ccc(-c2ccc(C3=NOC(CO)C3)cc2F)cc1C(=O)N[C@@H]1C2CCC(/C2=C/C2CCCC2)[C@@H]1C(=O)Nc1ccc(F)c(C(F)(F)F)c1 (some centres unmarked) [compound 897]
15 | 4.2 | COc1cc(C)c(-c2nnc(CO)s2)cc1C(=O)N[C@H]1[C@@H](C(=O)Nc2ccc(F)c(C(F)(F)F)c2)[C@H]2CC[C@@H]1/C2=C\C1CC1 [compound 808]
16 | 1.5 | COc1ccc(-c2cc(C3=NOC4CC(CO)CC34)ccc2F)cc1C(=O)N[C@H]1[C@@H](C(=O)Nc2ccc(F)c(C(F)(F)F)c2)[C@H]2CC[C@@H]1/C2=C\C1CCCC1 (some centres unmarked) [compound 952]
17 | 4.9 | COc1ccc(C2=NO[C@H]3COC[C@@H]23)cc1C(=O)N[C@H]1[C@@H](C(=O)N[C@H](C)C2(C)CC2)[C@H]2CC[C@@H]1/C2=C\C1CC(F)(F)C1 [compound 842]
18 | 55 | COc1cc(F)c(F)cc1C(=O)N[C@@H]1C2CCC(/C2=C/c2ccc(Cl)cc2)[C@@H]1C(=O)Nc1ccc(F)c(C(F)(F)F)c1 (some centres unmarked) [compound 21]
19 | 4.4 | COc1ccc(C2=NO[C@H]3C[C@H](CO)CN23)cc1C(=O)N[C@H]1[C@@H](C(=O)Nc2ccc(F)c(C(F)(F)F)c2)[C@H]2CC[C@@H]1/C2=C\CC(C)C [compound 838]
20 | 11 | CC/C=C1\C2CCC1[C@H](C(=O)Nc1ccc(F)c(C(F)(F)F)c1)[C@@H]2NC(=O)c1cc(-c2cc(C(=O)NC)ccc2F)ccc1OC (some centres unmarked) [compound 156]
